According to PubChem BioAssay AID1963873 (Molecular Pharmacology Branch, DTP, NCI, 2024):

System: 276233-004-R-J1-PDC KRAS spheroids with HUVEC/MSC, viability
Experiment: Anticancer human tumor 276233-004-R-J1-PDC patient-derived colon adenocarcinoma cell line growth inhibition [KRAS2]
Details: for IC50: curve of first compound; for viability, T/C: stronger effect = lower value
In short: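 Combination screen of spheroid viability in tumor-cell co-cultures with endothelial (HUVEC) and mesenchymal stem cell stroma. Each agent was tested in half-log dilutions, topping at clinical Cmax or at 10 microM without a known Cmax.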
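Further: cells exposed to agents for seven days before viability read.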
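Wherever viability, T/C is given: 100% = DMSO vehicle control wells and lower values mean fewer viable cells.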

Q: How did the IC50 (second compound 0.1 µM) turn out when `O=C(c1cc(Cc2n[nH]c(=O)c3ccccc23)ccc1F)N1CCN(C(=O)C2CC2)CC1` + C=CC(=O)N1CCN(c2nc(=O)n(-c3c(C)ccnc3C(C)C)c3nc(-c4c(O)cccc4F)c(F)cc23)C(C)C1 was run?
A: > 10 µM

Q: And the IC50 (second compound 0.316 µM)?
A: > 10 µM

Q: And the IC50 (second compound 1 µM)?
A: > 10 µM

Q: And the IC50 (second compound 3.16 µM)?
A: > 10 µM

Q: And the IC50 (second compound 10 µM)?
A: > 10 µM

Q: And the viability, T/C (second compound 0.1 µM, first compound 0.0316 µM)?
A: 83.6%

Q: What about the viability, T/C (second compound 0.1 µM, first compound 0.1 µM) of the same molecule?
A: 96%

Q: What about the viability, T/C (second compound 0.1 µM, first compound 0.316 µM) of the same molecule?
A: 78.6%

Q: And the viability, T/C (second compound 0.1 µM, first compound 1 µM)?
A: 110%

Q: And the viability, T/C (second compound 0.1 µM, first compound 3.16 µM)?
A: 82.6%

Q: And the viability, T/C (second compound 0.1 µM, first compound 10 µM)?
A: 71.8%

Q: And the viability, T/C (second compound 0.316 µM, first compound 0.0316 µM)?
A: 103%

Q: What about the viability, T/C (second compound 0.316 µM, first compound 0.1 µM) of the same molecule?
A: 103%

Q: What about the viability, T/C (second compound 0.316 µM, first compound 0.316 µM) of the same molecule?
A: 108%

Q: What about the viability, T/C (second compound 0.316 µM, first compound 1 µM) of the same molecule?
A: 99%

Q: What about the viability, T/C (second compound 0.316 µM, first compound 3.16 µM) of the same molecule?
A: 105%

Q: And the viability, T/C (second compound 0.316 µM, first compound 10 µM)?
A: 87.9%

Q: And the viability, T/C (second compound 1 µM, first compound 0.0316 µM)?
A: 121%

Q: What about the viability, T/C (second compound 1 µM, first compound 0.1 µM) of the same molecule?
A: 105%

Q: And the viability, T/C (second compound 1 µM, first compound 0.316 µM)?
A: 98.7%

Q: What about the viability, T/C (second compound 1 µM, first compound 1 µM) of the same molecule?
A: 82.9%

Q: And the viability, T/C (second compound 1 µM, first compound 3.16 µM)?
A: 98.9%

Q: And the viability, T/C (second compound 1 µM, first compound 10 µM)?
A: 99.4%

Q: What about the viability, T/C (second compound 3.16 µM, first compound 0.0316 µM) of the same molecule?
A: 86.4%

Q: And the viability, T/C (second compound 3.16 µM, first compound 0.1 µM)?
A: 98.1%

Q: And the viability, T/C (second compound 3.16 µM, first compound 0.316 µM)?
A: 82.5%

Q: What about the viability, T/C (second compound 3.16 µM, first compound 1 µM) of the same molecule?
A: 103%

Q: What about the viability, T/C (second compound 3.16 µM, first compound 3.16 µM) of the same molecule?
A: 85.2%

Q: And the viability, T/C (second compound 3.16 µM, first compound 10 µM)?
A: 89.8%

Q: And the viability, T/C (second compound 10 µM, first compound 0.0316 µM)?
A: 84.1%

Q: And the viability, T/C (second compound 10 µM, first compound 0.1 µM)?
A: 83.5%

Q: And the viability, T/C (second compound 10 µM, first compound 0.316 µM)?
A: 83.2%

Q: And the viability, T/C (second compound 10 µM, first compound 1 µM)?
A: 73.5%

Q: And the viability, T/C (second compound 10 µM, first compound 3.16 µM)?
A: 78.2%

Q: What about the viability, T/C (second compound 10 µM, first compound 10 µM) of the same molecule?
A: 77.8%
